Article PMC2574679 (Journal of the American Chemical Society, 2008)

Biological target: Bcl-XL (Homo sapiens, UniProt Q07817)
Assay type: binding

Chain of Bcl-XL (Q07817 whole entry): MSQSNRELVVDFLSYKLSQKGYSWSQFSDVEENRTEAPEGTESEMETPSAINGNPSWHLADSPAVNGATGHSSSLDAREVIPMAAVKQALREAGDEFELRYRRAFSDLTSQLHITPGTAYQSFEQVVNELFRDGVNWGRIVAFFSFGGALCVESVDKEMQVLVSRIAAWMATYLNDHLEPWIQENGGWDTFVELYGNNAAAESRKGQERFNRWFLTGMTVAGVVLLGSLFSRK

**Q.** CC1(C)CCN(c2ccc(C(=O)NS(=O)(=O)c3ccc(NCCSc4ccccc4)c([N+](=O)[O-])c3)cc2)CC1 [SZ4TA2] was tested. Which IC50 did it give?
**A.** The IC50 was 78.8 nM.
